In US7754705B2, “Cationic steroid antimicrobial compositions and methods of use” (priority 2006, dated 2010):
Read-outs that look alike come from different tables or passages of the source.

Columns and labels:
[1] = test system: vaccinia virus; assay type: cell-based, vaccinia virus; human keratinocytes (HaCaT)
[2] = test system: vaccinia virus
[3] = test system: vaccinia virus; experiment: microbe, parasite or virus in culture; conditions: Orthopoxvirus vaccinia, BSC-1, in Chlorocebus sabaeus, 24 h
[4] = test system: vaccinia lipid envelope; assay type: binding, vaccinia virus; keratinocytes

| SMILES | activity against vaccinia virus (vaccinia gene expression) [1] | concentration at which significant viral killing was observed / compound was effective [2] | % Viability ([2]; 5 μM) | % Viability ([2]; 10 μM) | % Viability ([2]; 25 μM) | % Viability ([2]; 50 μM) | % Viability ([2]; 100 μM) | viability at 5 µM [3] | viability at 10 µM [3] | viability at 25 µM [3] | viability at 50 µM [3] | viability at 100 µM [3] | effectiveness in killing vaccinia virus (in words) [2] | incorporation into vaccinia lipid envelope versus keratinocyte membrane [4] | % Viability ([2]; 1 μM) |
| --- | --- | --- | --- | --- | --- | --- | --- | --- | --- | --- | --- | --- | --- | --- | --- |
| CCCCCCCCOCCCC(C)C1CCC2C3C(OCCCN)CC4CC(OCCCN)CCC4(C)C3CC(OCCCN)C12C (stereo not drawn) [CSA-7] | most effective | 5 µM | 0.56% | 0.00% | 0.00% | 0.00% | 0.00% |  |  |  |  |  |  |  |  |
| CC(CCCO)C1CCC2C3C(OCCCN)CC4CC(OCCCN)CCC4(C)C3CC(OCCCN)C12C (stereo not drawn) [CSA-8] |  |  | 61.87% | 28.79% | 4.67% | 2.33% | 1.56% |  |  |  |  |  |  |  |  |
| CC(O)[C@H]1CC[C@H]2[C@@H]3[C@H](OCCCN)C[C@@H]4C[C@H](OCCCN)CC[C@]4(C)[C@H]3C[C@H](OCCCN)[C@]12C (stereo partly drawn) [CSA-11] |  |  |  |  |  |  |  | 84.2% | 92.9% | 100% | 97.3% | 98.4% |  |  |  |
| CCCCCCCCNCCC[C@@H](C)[C@H]1CC[C@H]2[C@@H]3[C@H](OCCCN)C[C@@H]4C[C@H](OCCCN)CC[C@]4(C)[C@H]3C[C@H](OCCCN)[C@]12C [CSA-13] | most effective |  | 37.50% | 8.82% | 3.31% | 0.00% | 0.00% |  |  |  |  |  |  |  |  |
| CC(CCCN)C1CCC2C3C(OCCCN)CC4CC(OCCCN)CCC4(C)C3CC(OCCCN)C12C (stereo not drawn) [CSA-15] |  |  | 98.88% | 93.68% | 101.49% | 97.40% | 65.80% |  |  |  |  |  |  |  |  |
| CCCOCCCC(C)C1CCC2C3C(OCCCN)CC4CC(OCCCN)CCC4(C)C3CC(OCCCN)C12C (stereo not drawn) [CSA-17] |  |  | 53.18% | 19.48% | 3.00% | 0.00% | 0.00% |  |  |  |  |  |  |  |  |
| CC(CCCOS(=O)(=O)O)C1CCC2C3C(OCCCN)CC4CC(OCCCN)CCC4(C)C3CC(OCCCN)C12C (stereo not drawn) [CSA-21] |  |  | 100.00% | 71.76% | 40.39% | 14.12% | 4.31% |  |  |  |  |  |  |  |  |
| CC(CCCOCCCN)C1CCC2C3C(OCCCN)CC4CC(OCCCN)CCC4(C)C3CC(OCCCN)C12C (stereo not drawn) [CSA-25] |  |  | 97.40% | 74.35% | 66.91% | 39.41% | 10.04% |  |  |  |  |  |  |  |  |
| CC(CCCO)C1CCC2C3C(NC(=O)CCCCCN)CC4CC(NC(=O)CCCCCN)CCC4(C)C3CC(NC(=O)CCCCCN)C12C (stereo not drawn) [CSA-31] |  |  | 99.24% | 99.24% | 101.52% | 102.28% | 101.52% |  |  |  |  |  | little or no detectable activity |  |  |
| CCCCCCCCNCCC[C@@H](C)[C@H]1CC[C@H]2[C@@H]3CC[C@@H]4C[C@H](OCCCN)CC[C@]4(C)[C@H]3C[C@H](OCCCN)[C@]12C [CSA-46] | most effective |  | 41.89% | 3.77% | 0.38% | 0.00% | 0.00% |  |  |  |  |  |  |  |  |
| CC(CCCNCCCNCCCN)C1CCC2C3C(OCCCN)CC4CC(OCCCN)CCC4(C)C3CC(OCCCN)C12C (stereo not drawn) [CSA-54] |  |  | 103.91% | 101.12% | 95.53% | 101.12% | 95.53% |  |  |  |  |  | little or no detectable activity |  |  |
| CC(CCCNC(=O)CCC(=O)c1ccc2cc(N(C)C)ccc2c1)C1CCC2C3C(OCCCN)CC4CC(OCCCN)CCC4(C)C3CC(OCCCN)C12C (stereo not drawn) [CSA-59] |  |  | 97.83% | 66.31% | 26.09% | 0.54% | 0.00% |  |  |  |  |  |  | preferentially incorporates into the vaccinia lipid envelope over the keratinocyte membrane with a high degree of selectivity |  |
| CCCCCN(CCCCC)CCCC(C)C1CCC2C3C(OCCCN)CC4CC(OCCCN)CCC4(C)C3CC(OCCCN)C12C.Cl.Cl.Cl.Cl (stereo not drawn) [CSA-90] |  |  | 23.67% | 14.49% | 7.73% | 4.83% | 0.48% |  |  |  |  |  |  |  | 64.73% |
| CCCCCCCCN(CCCCCCCC)CCCC(C)C1CCC2C3C(OCCCN)CC4CC(OCCCN)CCC4(C)C3CC(OCCCN)C12C.Cl.Cl.Cl.Cl (stereo not drawn) [CSA-91] |  |  | 0.00% | 0.00% | 0.00% | 0.00% | 0.00% |  |  |  |  |  | most effective |  | 10.31% |
| CCCCCCCCCCCCCCCCNCCCC(C)C1CCC2C3C(OCCCN)CC4CC(OCCCN)CCC4(C)C3CC(OCCCN)C12C.Cl.Cl.Cl.Cl (stereo not drawn) [CSA-92] |  |  | 0.00% | 0.00% | 0.00% | 0.00% | 0.00% |  |  |  |  |  | most effective |  | 0.00% |
